pIC50: −log10 of the molar value.
Assays:
HTL4 = biological target: T1, HTL4 (Striga hermonthica, UniProt A0A0M4AMQ0); test: Affinity for strigolactone receptor, YLG probe competition (fluorescence); type: binding; conditions: competition with YLG, test range 0.01 to 10 µM, pH 7.0, read-out: IC50 values of test compounds
T1 sequence (A0A0M4AMQ0 1-271): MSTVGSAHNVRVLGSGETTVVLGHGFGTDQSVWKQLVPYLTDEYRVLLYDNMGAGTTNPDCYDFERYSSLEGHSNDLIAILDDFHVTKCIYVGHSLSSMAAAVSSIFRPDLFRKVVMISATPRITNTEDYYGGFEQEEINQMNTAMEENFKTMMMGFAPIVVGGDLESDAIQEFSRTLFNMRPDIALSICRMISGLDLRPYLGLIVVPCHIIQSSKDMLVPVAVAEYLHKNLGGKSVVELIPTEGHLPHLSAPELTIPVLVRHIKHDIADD
Description: (§1) PTL 1 reports that the affinity of a test compound for the strigolactone receptor can be evaluated by reacting strigolactone with a probe for evaluation of affinity for a strigolactone receptor (e.g., YLG) in the presence of the test compound, and measuring the fluorescence emitted from the decomposition product of YLG. Therefore, the compounds synthesized in Example 1 were used as the test compounds, and the affinity for the strigolactone receptor was evaluated by a similar method to the above. The details are as follows.
(§2) An Arabidopsis thaliana strigolactone receptor (AtD14) was produced in accordance with a usual method. More specifically, cDNA of the receptor was obtained by RT-PCR, and expression and purification were carried out in E. coli. Additionally, Striga strigolactone receptors were produced by the method disclosed in PTL 1 (ShHTL1: amino acid SEQ ID NO: 1, ShHTL2: amino acid SEQ ID NO: 2, ShHTL3: amino acid SEQ ID NO: 3, ShHTL4: amino acid SEQ ID NO: 4, ShHTL5: amino acid SEQ ID NO: 5, ShHTLS: amino acid SEQ ID NO: 6, ShHTL7: amino acid SEQ ID NO: 7, ShHTLS: amino acid SEQ ID NO: 8, ShHTL9: amino acid SEQ ID NO: 9, ShHTL10: amino acid SEQ ID NO: 10, and ShHTL11: amino acid SEQ ID NO: 11.)
(§3) One hundred microliters of a reaction solution containing each of the obtained strigolactone receptors ([…]), YLG (final concentration: […]), and each of the test compounds (final concentration: 0.01 to 10 µM) or the control compound (5-deoxystrigol, final concentration: 0.01 to 10 µM) as a competitive compound (100 mM HEPES, 150 mM NaCl, pH: 7.0, 0.1% DMSO) was prepared and reacted in a 96 black-well plate (Greiner). Sixty after the initiation of the reaction, fluorescence was detected at an excitation wavelength of 480 nm and a detection wavelength of 520 nm using a fluorescence detector (SpectraMax i3, manufactured by Molecular Devices), and the fluorescence intensity was measured. Based on the measurement results of fluorescence intensity, a Lineweaver-Burk plot was created to calculate the Km values, and the IC50 values of each of the test compounds and the control compound, which are competitive compounds.
(§4) In Table 7, HTL1 to HTL11 refer to strigolactone receptors (SEQ ID NOs: 1 to 11), and AtD14 refer to the Arabidopsis thaliana strigolactone receptor.

HTL7 = biological target: T2, HTL7 (Striga hermonthica, UniProt A0A0M3PNA2); test: as above; type: binding; conditions: competition with YLG, test range 0.01 to 10 µM, pH 7.0, read-out: IC50 values of test compounds
T2 sequence (A0A0M3PNA2 1-271): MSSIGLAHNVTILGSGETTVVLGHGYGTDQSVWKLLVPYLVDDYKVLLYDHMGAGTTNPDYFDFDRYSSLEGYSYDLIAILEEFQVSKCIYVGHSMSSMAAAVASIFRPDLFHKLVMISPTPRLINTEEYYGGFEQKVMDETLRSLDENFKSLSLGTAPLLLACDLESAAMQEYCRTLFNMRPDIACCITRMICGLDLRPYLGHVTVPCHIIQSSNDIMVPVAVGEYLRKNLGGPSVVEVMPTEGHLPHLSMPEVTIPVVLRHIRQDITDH
Description: as §1, §2, §3, §4

Orobanche minor = test: Parasitic plant germination induction test (Orobanche minor seeds); type: in vivo; conditions: in the dark for 2 days
Description: (§5) A parasitic plant germination induction test was conducted using the compounds synthesized in Example 1 as test compounds. The seeds of a parasitic plant (Striga hermonthica, Orobanche minor, or Phelipanche aegyptiaca) were suspended in sterilized ultrapure water, and this was dispensed in an amount of 100 µL each (containing about 20 seeds) into a 96-well plate. The test compounds or control compounds (Comparison Compound 1 or synthetic Strigolactone (GR^24: Comparison Compound 2)) dissolved in DMSO were individually added thereto to a final concentration of these compounds of 10 nM to 1 fM (1 × 10^-8 to 1 × 10^-15 M), and allowed to stand in the dark for 2 days. The presence or absence of germination was observed using a microscope, and the germination rate (i.e., number of germinated seeds/total number of seeds) was measured. The higher the germination rate in the parasitic plant germination induction test, or the higher the germination rate at lower concentration, the higher the Striga germination inducing activity.
(§6) In Tables 1 to 6, the concentrations (10 nM, 1 nM, and 0.1 nM) represent compound concentrations. In Tables 1-6, the evaluation criteria for the compounds are as follows: • ++: germination rate of 20% or more • +: germination rate of 5% or more and less than 20% • -: germination rate of less than 5% Table 1

Phelipanche aegyptiaca = test: Parasitic plant germination induction test (Phelipanche aegyptiaca seeds); type: in vivo; conditions: in the dark for 2 days
Description: as §5, §6

Structure (SMILES)	pIC50 (HTL4)	pIC50 (HTL7)	Germination rate 0.1 nM (Orobanche minor; compound concentration 0.1 nM)	Germination rate 1 nM (Orobanche minor; compound concentration 1 nM)	Germination rate 10 nM (Orobanche minor; compound concentration 10 nM)	Germination rate 1 nM (Phelipanche aegyptiaca; compound concentration 1 nM)	Germination rate 10 nM (Phelipanche aegyptiaca; compound concentration 10 nM)
CC1=CC(OC=C2C(=O)OC3C4=C(CCCC4(C)C)CC23)OC1=O (stereo not shown) [5-Ddeoxystriqol, 5-deoxystrigol, reference compound]	6.52	6.92	–	–	–	–	–
CC1=CC(OC(=O)NCc2ccccc2)OC1=O (stereo not shown) [Comparison Compound 1, reference compound]	< 5.00	< 5.00	–	–	–	–	–
CCCCOc1ccc(S(=O)(=O)N2CCN(C(=O)OC3C=C(C)C(=O)O3)CC2)cc1 (stereo not shown) [Compound 1]	< 5.00	6.51	- (germination rate of less than 5%)	++ (germination rate of 20% or more)	++ (germination rate of 20% or more)	- (germination rate of less than 5%)	+ (germination rate of 5% or more and less than 20%)
CCCCOc1ccc(S(=O)(=O)N2CCN(C(=O)OC3C=CC(=O)O3)CC2)cc1 (stereo not shown) [Compound 13]	< 5.00	6.12	–	–	–	–	–
